Results taken from US20210228463A1, “COMPOSITION FOR FAT FORMATION INHIBITION AND BODY FAT REDUCTION, CONTAINING HYDRANGENOL AS ACTIVE INGREDIENT” (COSMAX BIO CO., LTD., priority 2019, published 2021).

Assays:
AMPK = experiment: Expression of p-AMPK protein in adipose and liver tissues by HG; type: in vivo, mice; details: HG-treated group, Western blotting, FIG. 18
Description: To analyze in vivo anti-obesity efficacy of HG, animal models of obesity were prepared. 8-week-old male C57BL/6N mice (SPF grade, 20±2 g, Orient Bio) were set into 7 groups as follows, and 10 mice per each group were tested: as normal control groups, normal mice (con) with no high fat diet and no administration, and obese mice (HFD) with induction of obesity by 30% high fat diet and no administration, and as a positive control group, obese mice with oral administration of orlistat which is an anti-obesity agent. As experimental groups, obese mice with oral administration of HG of 20 mg/kg, 40 mg/kg, or 80 mg/kg, and normal mice with oral administration of HG of 80 mg/kg were used. Mice were administered with HG at the same time with induction of obesity, and HG was administered for 5 days per week for 12 weeks. A dark: light cycle was maintained at intervals of 12 hours: 12 hours, and mice were allowed to free access to water. […]
Specifically, adipose and liver tissues were mixed with a protein extraction solution, homogenized using a tissue homogenizer, and then centrifuged at 4° C., 15,000 rpm for 30 minutes to obtain a supernatant, and then a standard curve was created using the Bradford method to quantify protein. […]

3T3-L1 cells = experiment: Fat accumulation inhibition in adipocytes (Oil Red O staining); type: cell-based; details: 3T3-L1 adipocytes, hydrangenol 2.5 ug/ml
Description: In this experiment, to induce adipocyte differentiation, 3T3-L1 cells were dispensed onto a plate and cultured in a 10% BS medium until the cell density reached 100%. At the cell differentiation stage, hydrangenol-containing hydrangea (Hydrangea serrata) (25 ug/ml), hydrangenol (2.5 ug/ml) or a positive control pioglatazone (10 uM) was added to a 10% FBS differentiation medium (5 μg/ml of insulin, 1 μM dexametasone, 0.5 mM 3-isobutyl-1-methylxanthine), respectively. After 10 days of treatment oil Red-O staining and quantitative analysis were performed to determine how much fat accumulation was inhibited. For visual evaluation, images were taken after staining, and then the stained cells were completely dried, dissolved in dimethyl sulfoxide (DMSO), transferred to a 96-well plate, and absorbance at 450 nm was measured.

PPARγ = experiment: Western blotting of PPARγ expression in adipocytes; type: cell-based; details: 3T3-L1 differentiated for 10 days, hydrangenol 2.5 ug/ml, 24 hours, FIG. 3
Description: The mechanism of reducing triglyceride in adipocytes was examined for the hydrangenol-containing hydrangea (Hydrangea serrata) and hydrangenol. A pre-adipocyte 3T3-L1 was differentiated for 10 days and treated with hydrangea (Hydrangea serrata) (25 ug/ml) and hydrangenol (2.5 ug/ml) for 24 hours, respectively. Thereafter, the cells were lysed using a modified LIPA buffer, and each 20 ug thereof was used for analysis. p-mTOR(ab109268, Abcam), p-FOXO1(9461S, Cell Signaling), PPARγ(sc-7273, Santa Cruz), and β-actin(A5316, Sigma) primary antibodies were used for analysis, respectively.

[1] = Changes of blood triglyceride and blood cholesterol by WHS; type: in vivo; details: blood, obese mice (HFD) + oral orlistat
Description: To analyze in vivo anti-obesity efficacy of WHS, animal models of obesity were first prepared. 8-week-old male C57BL/6N mice (specific-pathogen-free (SPF) grade, 20±2 g, Orient Bio) were set into 7 groups as follows, and 10 mice per each group were tested: as normal control groups, normal mice (con) with no high fat diet and no administration, and obese mice (HFD) with induction of obesity by 30% high fat diet and no administration, and as a positive control group, obese mice with oral administration of orlistat which is an anti-obesity agent. As experimental groups, obese mice with oral administration of WHS of 75 mg/kg, 150 mg/kg, or 300 mg/kg, and normal mice with oral administration of WHS of 300 mg/kg were used. Further, experiments were performed by dividing mice into those which were administered with WHS for 12 weeks at the same time with induction of obesity, and those which were administered with WHS after induction of obesity for 10 weeks. WHS was orally administered for 5 days per week during the administration period. A dark: light cycle was maintained at intervals of 12 hours: 12 hours, and mice were allowed to free access to water. To analyze the effects of WHS on blood triglyceride and blood cholesterol, a hematological-biochemical test of the WHS-administered group with induction of obesity was performed using a biochemical analyzer (AU480 Chemistry Analyzer, Beckman coulter, Calif., USA).

| Structure (SMILES) | amount of phosphorylated AMPK protein (AMPK) | triglyceride production in adipocytes (3T3-L1 cells) | expression level of peroxisome proliferator-activated receptor gamma y (PPAR) (PPARγ) | CHOL [1] [mg/dL] | HDL [1] [mg/dL] | LDL [1] [mg/dL] | TG [1] [mg/dL] |
| --- | --- | --- | --- | --- | --- | --- | --- |
| O=C1OC(c2ccc(O)cc2)Cc2cccc(O)c21 (stereo not shown) [HG, 8-hydroxy-3-(4-hydroxyphenyl)-3,4-dihydroisochromen-1-one] | increased | suppressed | reduction | – | – | – | – |
| CCCCCCCCCCC[C@@H](C[C@@H]1OC(=O)[C@H]1CCCCCC)OC(=O)[C@H](CC(C)C)NC=O [Orlistat, orlistat] | – | – | – | 115.63 | 83.70 | 8.60 | 76.40 |
